Assay results taken from patent publication US6512002B2, “Methods of treatment for premature ejaculation in a male” (Pfizer Inc., priority 2000, dated 2003).

What was measured:
total serum testosterone = assay: Testosterone elevation: total serum testosterone in a random, double-blind, parallel group, placebo-controlled study; assay type: in vivo, men
Description: In a random, double-blind, parallel group, placebo-controlled study, 3-{1-[4-(2-dimethylamino-ethoxy)-phenyl]-2-phenyl-but-enyl}-phenol was administered to men, aged 72 to 84 with below average serum testosterone levels. Subjects received either placebo or 3-{1-[4-(2-dimethylamino-ethoxy)-phenyl]-2-phenyl-but-enyl}-phenol as a sequential escalating dose, with subjects receiving 20 mg daily for the first month, 40 mg daily for the second month, and 60 mg daily for the final four months (remainder) of the study. Total serum testosterone was determined in the subjects at 4 weeks and at 2, 3 and 6 months.

Compound | melting point | Mean Percent Change From Baseline in Testosterone (total serum testosterone; 2 Months, men aged 72 to 84, escalating dose, 40 mg daily for the second month) | Mean Percent Change From Baseline in Testosterone (total serum testosterone; 3 Months, men aged 72 to 84, escalating dose, 60 mg daily for the final four months) | Mean Percent Change From Baseline in Testosterone (total serum testosterone; 6 Months, men aged 72 to 84, escalating dose, 60 mg daily for the final four months) | Mean Percent Change From Baseline in Testosterone (total serum testosterone; Week 4, men aged 72 to 84 with below average serum testosterone, 20 mg daily for the first month) | total serum testosterone versus subjects receiving placebo during the study (total serum testosterone; men aged 72 to 84, 20/40/60 mg daily escalating dose over 6 months, p=0.026)
CCCOc1ncc(C(C)=O)cc1-c1nc2c(CC)n(C3CN(C(C)C)C3)nc2c(=O)[nH]1 | 162.8 to 163.6 °C | – | – | – | – | –
CCC(=C(c1ccc(OCCN(C)C)cc1)c1cccc(O)c1)c1ccccc1 [Treatment Compound, 3-{1-[4-(2-dimethylamino-ethoxy)-phenyl]-2-phenyl-but-enyl}-phenol] | – | 44.45% | 41.47% | 45.19% | 36.20% | significant increase
